Assays:
[1] = system: fibres innervating the cornea (polymodal nociceptive fibres); assay: Extracellular recording of corneal nerve fibres in cats with a corneal wound, before and after topical drug application; type: in vivo, cat; settings: anaesthetized cats 7 and 15 days after circular corneal wound; for responses evoked by pulses of CO2 of 30 s duration: 98% CO2 on receptor field around the lesion, before vs after topical application (same concentration ranges); for spontaneous activity of the fibres innervating the zones around the lesion: before vs after topical application (carbamazepine 0.001-0.01%, phenyloin 0.001-0.1%, mexiletine 0.001-0.1%, lidocaine 0.0005-0.01%, tocaidine 0.001-0.01%)
Method: Tests were carried out on fifteen adult cats of both sexes, anaesthetized with pentobarbital sodium (Nembutal, 40 mg/kg, i.p.). The cornea of both eyes was anaesthetized topically by instillation of tetracaine 0.1% and oxybuprocaine hydrochloride 0.4%.
A circular wound was made in the centre of the cornea with a 5 mm dia. trepan which penetrated 40-50 μm below the Bowman membrane. The animals were treated with topical and systemic antibiotics, leaving them to recover for 1-2 weeks.
The recording tests were carried out 7 and 15 days after surgery. The animals were anaesthetized with Nembutal (40 mg/kg, i.p.) and were maintained in a state of areflexia during the experiment by intravenous infusion of dilute Nembutal (5 mg/kg) in the saphenous vein. The animals breathed spontaneously through a tracheal cannula. Respiratory CO2, rectal temperature and arterial pressure were monitored continuously and were kept stable. The animals were sacrificed with an overdose of Nembutal at the end of the experiment.
Extracellular recording was made of nerve fibres isolated from the cornea, obtained from the ciliary nerves of the eye, using silver/silver chloride electrodes and conventional electrophysiological equipment, as described previously (cf. Belmonte, C., Gallar, J., Pozo, M. A., Rebollo, I. (1991) Excitation by irritant chemical substances of sensory afferent units in the cat's cornea. J. Physiol. 437: 709-725).
The corneal sensory fibres were identified by their response to mild stimulation with a wet brush. The mechanical threshold was measured with a Cochet-Bonnet aesthesiometer with a No. 12 filament (0.1-1.9 mN) and with calibrated von Frey hairs (0.002-2.0 N). The receptor fields were mapped with a suprathreshold force hair. Sensitivity to chemical stimuli was investigated by applying a pulse of gas containing 98% CO2 at a flow rate of 80 ml/min on the receptor field for 30 s.
The conduction velocity was measured by observing the latency to electric shocks (0.1-0.5 ms, 0.5-3.0 mA) applied on the receptor field with a pair of silver electrodes 3-5 mm apart. The conduction distance was estimated with a silk thread of 0.8 G positioned on the path of the nerve.
The nerve discharges and the stimulation pulses were recorded on an FM magnetic tape recorder for off-line computer analysis with suitable software (CED 1401plus and Spike2 for Windows). The spontaneous activity (average discharge frequency in pulses per second) and the changes in discharge caused by the various stimuli were measured.
The fibres were classified as peripheral and central according to the localization of their receptor field. […] Depending on the localization of the receptor field the fibres were classified as far from the wound or close to or bordering on the wound. The control data were obtained from intact corneas.
The response of the polymodal nociceptive fibres to chemical stimulation was investigated in the fibres whose receptor field touched the damaged area and in those whose receptor field was outside of and far from the lesion. The spontaneous activity and the discharge of the fibres in response to stimulation with CO2 were measured before and after topical application of carbamazepine (0.001-0.01%), phenyloin (5,5-diphenylhydantoin) (0.001-0.1%), mexiletine (0.001-0.1%), lidocaine (0.0005-0.01%) and tocaidine (0.001-0.01%).

[2] = system: sensations of ocular dryness that appear after photorefractive surgery of the LASIK type; assay: Clinical study of topical carbamazepine versus placebo on ocular dryness after LASIK surgery; type: in vivo, human; settings: ophthalmic solution at 0.01%, one drop in the operated eye twice a day for 14 days after LASIK
Method: A clinical study was carried out for comparing the attenuating effect produced by the topical administration of carbamazepine and of a placebo on the sensations of ocular dryness that appear after photorefractive surgery of the LASIK type. The study included 124 subjects, men and women in the age range 21-45 years, who underwent routine, elective, unilateral LASIK surgery for correction of myopia. The carbamazepine was administered in ophthalmic solution at 0.01%. After surgery, the subjects received one drop of the study medication in the operated eye, twice a day for 14 consecutive days. Postoperative examinations were carried out on days 1, 3, 7 and 14. The efficacy of the treatment was assessed by measuring the sensation of ocular dryness, pain intensity, and the overall analgesic efficacy, employing independent visual-analogy scales. The symptoms of eye inflammation, burning/stinging sensations, lacrimation etc. were also recorded.

Structure (SMILES)	responses evoked by pulses of CO2 of 30 s duration [1]	spontaneous activity of the fibres innervating the zones around the lesion [1]	incidence of symptoms of dryness throughout the day [2]	incidence of the symptoms of ocular dryness ([2]; statistically significant)
NC(=O)N1c2ccccc2C=Cc2ccccc21 [carbamazepine]	dose-dependent decrease	dose-dependent decrease	significantly lower	more reduced incidence
CCN(CC)CC(=O)Nc1c(C)cccc1C [lidocaine]	dose-dependent decrease	dose-dependent decrease		
Cc1cccc(C)c1OCC(C)N (stereo not drawn) [mexiletine]	dose-dependent decrease	dose-dependent decrease		
O=C1NC(=O)C(c2ccccc2)(c2ccccc2)N1 [phenyloin, 5,5-diphenylhydantoin]	dose-dependent decrease	dose-dependent decrease		
Cc1cccc(C)c1NC(=O)C(C)N (stereo not drawn) [tocaidine]	dose-dependent decrease	dose-dependent decrease		
